According to patent publication US10526276B2, “Dream neuronal calcium sensor-modulating compounds, and therapeutic uses thereof” (CONSEJO SUPERIOR DE INVESTIGACIONES CIENTÍFICAS, priority 2014, dated 2020):

What was measured:
Kv4.3 channels = target: T1, Kv4.3 channels (Homo sapiens, UniProt Q9UK17); assay: Patch-clamp in CHO cells transiently transfected with Kv4.3 only; format: cell-based; conditions: 100 nM, FIG. 1B
T1 construct: expressed in transfected cells; host or cells: CHO cells, transient transfection
T1 sequence (Q9UK17 1-655): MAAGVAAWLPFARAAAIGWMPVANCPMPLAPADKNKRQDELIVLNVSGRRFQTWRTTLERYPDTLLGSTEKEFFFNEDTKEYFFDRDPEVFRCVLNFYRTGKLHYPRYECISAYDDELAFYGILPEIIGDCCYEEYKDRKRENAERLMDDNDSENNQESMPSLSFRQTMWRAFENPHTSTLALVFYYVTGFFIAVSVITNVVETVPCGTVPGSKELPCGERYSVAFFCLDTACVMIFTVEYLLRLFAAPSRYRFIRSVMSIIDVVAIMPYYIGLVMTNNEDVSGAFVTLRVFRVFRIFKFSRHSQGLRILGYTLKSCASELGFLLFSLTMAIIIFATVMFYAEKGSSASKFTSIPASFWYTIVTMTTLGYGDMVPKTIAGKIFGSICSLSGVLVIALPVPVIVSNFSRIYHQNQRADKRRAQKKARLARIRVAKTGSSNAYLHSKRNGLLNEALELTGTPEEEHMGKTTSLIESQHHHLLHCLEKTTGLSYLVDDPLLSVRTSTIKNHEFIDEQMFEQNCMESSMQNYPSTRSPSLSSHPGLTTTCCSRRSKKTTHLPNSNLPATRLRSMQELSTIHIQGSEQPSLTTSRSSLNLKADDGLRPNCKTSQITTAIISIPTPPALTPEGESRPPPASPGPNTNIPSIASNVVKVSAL
Description: (§1) The new compounds synthesised according to this invention have been evaluated in vitro in voltage-binding assays in CHO cells transiently transfected with cDNA encoding Kv4.3 only or Kv4.3 in the presence of DREAM (Kv4.3+DREAM) using the patch-clamp technique. […] For some of the compounds evaluated, this effect is selective and is only observed in the presence of the DREAM channel modulator.

Kv4.3+DREAM channels = target: T2, Kv4.3+DREAM channels (Homo sapiens, UniProt Q9UK17+Q9Y2W7); assay: Patch-clamp in CHO cells transiently transfected with Kv4.3 in the presence of DREAM; format: cell-based; conditions: 100 nM; for inhibitory effect of the Kv4.3+DREAM current (% decrease of the amount of charge passing through the membrane): CHO cells, FIG. 1B
T2 construct: expressed in transfected cells; host or cells: CHO cells, transient transfection
T2 sequence (Q9Y2W7 1-256): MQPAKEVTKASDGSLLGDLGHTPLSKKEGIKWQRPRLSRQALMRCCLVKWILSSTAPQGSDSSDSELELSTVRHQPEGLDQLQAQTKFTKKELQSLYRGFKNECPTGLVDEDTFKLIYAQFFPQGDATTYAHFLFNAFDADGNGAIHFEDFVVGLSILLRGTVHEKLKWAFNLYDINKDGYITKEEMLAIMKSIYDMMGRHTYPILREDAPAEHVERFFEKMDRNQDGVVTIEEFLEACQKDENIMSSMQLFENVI
T2 sequence (Q9UK17 1-655): T1 sequence (Q9UK17 1-655)
Description: as §1

[1] = test system: STHdh^Q111/Q111 cells infected with lentivirus expressing the complete human DREAM protein (Q111DR); assay: Neuroprotection against H2O2-mediated necrosis (LDH release) in Q111DR cells; format: cell-based, mouse; conditions: compound 100 nM; H2O2 0.66 mM; FIG. 2
Procedure: FIG. 2. […] RP: Repaniglida.
(§2) In an immortalized cell line of mouse striatum infected with lentivirus STHdh^Q111/Q111 expressing the complete human DREAM protein (Q111DR), the neuroprotective effect of the compounds was tested against necrosis mediated by H2O2 and apoptosis mediated by staurosporine.

[2] = test system: STHdh^Q111/Q111 cells infected with lentivirus expressing the complete human DREAM protein (Q111DR); assay: Neuroprotection against staurosporine-mediated apoptosis (caspase-3 activation) in Q111DR cells; format: cell-based, mouse; conditions: compound 100 nM, 1 h pre-incubation; staurosporine 1 μM for 5 h; compared with repaglinide (RP); FIG. 3
Procedure: FIG. 3. Analysis of the neuroprotective effect of compounds 9, 16, 22, 23 and 62 (100 nM) against the activation of caspase-3 mediated by staurosporine in ^Q111/Q111 cells infected with lentivirus expressing the complete human DREAM protein. The caspase-3 activity was measured after 1 h of pre-incubation of the compounds (100 nM) and subsequent exposure for 5 h of staurosporine at 1 μM. RP: Repaniglida.
as §2

Compound	inhibitory effect of the Kv4.3 current in the absence of DREAM (% decrease of the amount of charge passing through the membrane) (Kv4.3 channels)	inhibitory effect of the Kv4.3+DREAM current (% decrease of the amount of charge passing through the membrane) (Kv4.3+DREAM channels)	release of LDH (lactate dehydrogenase) mediated by H2O2, neuroprotective effect [1]	selectivity of Kv4.3 current inhibition for the presence of DREAM (Kv4.3+DREAM channels; Kv4.3+DREAM versus Kv4.3 only)	activation of caspase-3 mediated by staurosporine, neuroprotective effect [2]
CCCCc1ccc(-c2ccc(C(=O)O)c(NC(=O)Cc3ccc(Cl)c(Cl)c3)c2)cc1 [Compound 35, 2-[2-(3,4-dichlorophenyl)acetylamino]-4-(4′-n-butylphenyl)benzoic acid]	only inhibit the Kv4.3 current in the presence of DREAM	only inhibit the Kv4.3 current in the presence of DREAM	–	–	–
O=C(Cc1ccc(Cl)c(Cl)c1)Nc1ccc(-c2ccccc2)cc1C(=O)O [Compound 42, 2-[2-(3,4-dichlorophenyl)acetylamino]-5-phenylbenzoic acid]	only inhibit the Kv4.3 current in the presence of DREAM	only inhibit the Kv4.3 current in the presence of DREAM	–	–	–
COC(=O)[C@@H](Cc1cn(C(c2ccccc2)(c2ccccc2)c2ccccc2)cn1)NC(=O)Cc1ccc(Cl)c(Cl)c1 [Compound 62, (2R)-2-[2-(3,4-dichlorophenyl)acetylamino]-3-(1-trityl-1H-imidazol-4-yl)methyl propanoate]	similarly inhibits the current generated by the Kv4.3 channels	similarly inhibits the current generated by the Kv4.3 channels to that of the Kv4.3 channels in the presence of DREAM	lowest LDH release	has no selectivity	lowest activation of caspase-3
